Experimental data: patent US20140162958A1, “Copolymer-1 Composition and Methods of Use” (priority 2012, published 2014)

How the values were obtained:
[1] = type: in vivo, patient (the inventor)
Procedure: A series of compositions comprising an amount of copolymer-1 and a local anesthetic were generated in order to provide for a formulation that was substantially free of Site Reactions upon injection. Briefly, the methodology involved titrating amounts of an injectable local anesthetic (bupivacaine, 0.5%) to a solution of copolymer-1 (provided as COPAXONE®, 20 mg injectable syringe). […] This percentage of local anesthetic is well below clinical dosages typically used for skin infiltration for pain control (e.g. 0.25%). The composition was stable for over 30 days both at room temperature and when refrigerated.
The composition described in Example 1 (0.2 mL of bupivacaine (at 0.5%) added to 1.0 mL COPAXONE®, 20 mg injectable syringe) was used in this Example.
The inventor, Dr. Robbins, an anesthesiologist and pain management specialist familiar with the use of local anesthetics in procedures such as spinal epidurals, has been diagnosed with multiple sclerosis and has been prescribed COPAXONE® in order to treat the disease. […] Oral pain management (Motrin) and immediate icing of the injection site were ineffective in alleviating the pain associated with the COPAXONE® injection. […]

[2] = test system: experimental autoimmune encephalomyelitis (EAE); conditions: in vivo; cited from earlier work
[3] = test system: exacerbating-remitting form of multiple sclerosis; conditions: daily injections; cited from earlier work
[4] = test system: RRMS patients; conditions: 40 mg/mL subcutaneous injection three times a week; cited from earlier work
[5] = test system: 5-hydroxytryptamine (5-HT) induced plasma extravasation; conditions: concentration of about 0.083%; cited from earlier work

copolymer-1
pain / Site Reactions associated with the treatment ([1]; human, in vivo): skin wheals, immediate pain upon injection and continuing post-injection pain
suppression of EAE [2]: suppress EAE
exacerbations and increases in disability status versus control patients [3]: fewer exacerbations and smaller increases in their disability status
primary endpoint (reducing the annualized relapse rate relative to placebo) [4]: met its primary endpoint

CCCCN1CCCCC1C(=O)Nc1c(C)cccc1C (stereo not drawn) [bupivacaine]
inhibition of 5-HT induced plasma extravasation [5]: greater than 95%

CC(C)Cc1ccc(C(C)C(=O)O)cc1 (stereo not drawn) [Motrin]
alleviation of the pain associated with the COPAXONE injection ([1]; oral pain management): ineffective
